“Also recorded” adds a separate entry of the source. Marks after values point to notes of the source that are not given here. Square brackets hold non-standard residues; d marks the D form. Ends that are not written are not given here. Peptide text beside a SMILES is read from it. Phe(4-NH2) = Nc1ccc(C[C@H](N)C(=O)O)cc1
Assays:
[1] = Peptide solubility (remarks; assay medium, Tyrode buffer); format: physicochemical
[2] = test system: purified rat peritoneal mast cells; experiment: Histamine secretion from intact mast cells incubated with peptide alone (secretagogue side effect); conditions: for Secretagogue (histamine secretion following incubation of mast cell with different concentrations of each peptide): no allergen; for histamine secretion from mast cells on incubation with increasing concentrations of peptide alone: no additional allergen
Procedure: Mast cells from the peritoneal cavity of C.R rats were isolated in Tyrode buffer (137 mM NaCl, 2.7 mM KC1, 1 mM MgCl2, 0.4 mM NaH2PO4, 20 mM Hepes, 1.0 mM CaCl2, 5.6 mM glucose, 1 mg/ml BSA, pH 7.2) and purified over a Ficoll gradient. A suspension of washed peritoneal cells was placed over a cushion of 30% Ficoll 400 (Pharmacia Biotech.) in buffered Saline containing 0.1% BSA; and centrifuged at 150O×g for 15 min. The purity of mast cells recovered from the bottom of the tube was >90%, as assessed by toluidine blue staining.
Purified mast cells (duplicated of 10^5 cells/0.5 ml) were incubated in Tyrode buffer with buffer or with desired concentrations of the indicated peptide for 2 h. at. 37° C. Histamine secretion was subsequently stimulated by the indicated concentration of compound 48/80 (Sigma) dissolved in Tyrode buffer. Incubation with compound 48/80 was carried out for 20 mm.in at 37° C. The reaction was terminated by placing the tubes on ice. The cells were sedimented by centrifugation at 150×g for 5 mm.in and the supernatants were collected. The amount of histamine release was determined as previously described (Aridor et al., 1990). Briefly, cell pellets were lysed using 0.1N NaOH and the volume of each sample was adjusted to 0.5 ml by H2O. Histamine content was assayed using the o-phtalaldehyde (OPT) fluorimetric method (Shore et al., 1959). Aliquots of 0.4 ml from the supernatants and cell lysates were incubated with 1.6 ml H20, 0.4 ml 1N NaOH and 0.1 ml of 10 mg/l ml OPT in methanol, for 4 min at room temperature. The reaction was terminated by the addition of 0.2 ml 3N HCl. Samples were centrifuged at 150×g for 5 min. and 0.2 ml samples were transferred to a 96 well plate. The histamine spectrofluorometric assay was run in microplates using a microplates reader (FL-600, Biotek instruments Winooski, Vt., USA). Samples were excited by light at 340 nm and read at 440 nm. Histamine release was calculated as the percentage of total histamine content (supernatant/pellet+supernatant) in each sample. Each data point represents the average of duplicate measurements. The spontaneously released histamine was subtracted.

[3] = test system: purified rat peritoneal mast cells; format: cell-based
In short: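 Intact purified rat peritoneal mast cells were incubated at 37° C with increasing peptide concentrations, then stimulated with 5 μg/ml compound 48/80 (maximal release). Histamine secretion is expressed as % of total cellular histamine after subtracting spontaneous release, as the mean of duplicates.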

[4] = test system: abdominal skin of C.R rats; experiment: Rat skin test: topical application of peptide, then intradermal compound 48/80 or saline, wheal area; format: in vivo
Procedure: (§1) The hair of the abdominal area of C.R rats was carefully removed with an electric clipper and a depilatory cream. In each animal the abdominal area was divided to six equal zones that were marked by pen. Each zone was either subjected to peptide treatment or served as a control. In the first set of experiments, the peptide was topically applied as follows: 36 μl of peptide solution at the indicated concentration (dissolved in 72% DMSO in saline) was applied on desired abdominal area. In the second set of experiments, the peptide was injected intradermally as follows: 20 μl of peptide solution at different concentrations (dissolved in 10% DMSO in saline) was injected intradermally to an indicated abdominal area using a 27-gauge sterile needle.
(§2) Skin tests were performed 0.5, 1 or 2 hours following application of the peptide. Skin tests were performed by injecting intradermally 20 μl of the allergen (0.1 mg/ml compound 48/80 dissolved in saline) or saline alone, into the center of each marked area on the abdominal skin using a 27-gauge sterile needle. The allergic response was monitored by outlining with a marker the wheals which developed in response to allergen or saline treatment.
(§3) To quantitate the skin test results, the marker signs were transferred onto paper with scotch tape. The areas of the wheals were outlined and calculated by a computerized planimeter (Hewlett-Packard), as previously described (Sussman et al., 1982).

[5] = test system: abdominal skin of C.R rats; experiment: Rat skin test: intradermal injection of peptide, then intradermal compound 48/80 or vehicle, wheal area; format: in vivo
Procedure: as §1, §2, §3
Tables 10-16 presents the mean areas of the wheals, which developed in response to intradermal injection of each of the tested peptides, followed by either compound 48/80 or DDW injection applied after 0.5 or 1 hour. Two doses were tested for each peptide-20 and 200 μg (injection of 20 μl from a stock solution of 1 mg/ml or 10 mg/m respectively).
Skin tests on rats using compound 48/80 as the allergen assessed the ability of the peptides of the present invention to block allergic cutaneous reactions. The abdominal skin of the rats was subjected to peptide (indicated concentrations are listed in Tables 17A-17B below) or vehicle treatment (intradermal injection); the allergic response was induced by intradermal injection of compound 48/80 at various times; and the allergic response was quantified by calculating the area of the resultant allergic wheals.

[6] = test system: mice; experiment: IgE-independent mouse conjunctivitis induced by compound 48/80, clinical score; format: in vivo; set-up: scale not given here; conditions: drug 2% followed by vehicle
Procedure: A murine model was chosen as an in vivo model of IgE-independent human conjunctivitis, induced by a basic secretagogue.
Six groups of mice were topically treated as described in Table 19. The first application was installed 4 times (24 hours, 21 hours, 18 hours and 30 minutes) prior to the second application.
Clinical evaluation of allergic conjunctivitis was conducted in a blind fashion by determining the extent and intensity of lid edema, chemosis, erythema and tearing.

CC(C)C[C@H](NC(=O)CNC(=O)[C@H](CS)NC(=O)[C@H](CCC(=O)O)NC(=O)[C@H](CCCCN)NC(=O)[C@H](CC(C)C)NC(=O)[C@H](CC(N)=O)NC(=O)[C@H](CC(N)=O)NC(=O)[C@H](CCCCN)NC(=O)[C@@H]1CCCN1C(=O)[C@H](C)NC(=O)[C@H](CC(C)C)NC(=O)[C@H](CC(C)C)NC(=O)[C@H](C)NC(=O)[C@H](CC(C)C)NC(=O)[C@H](CC(C)C)NC(=O)[C@@H](NC(=O)[C@H](C)NC(=O)[C@@H]1CCCN1C(=O)[C@H](CC(C)C)NC(=O)[C@H](CC(C)C)NC(=O)[C@H](C)NC(=O)[C@@H](NC(=O)[C@H](C)NC(=O)[C@H](C)N)C(C)C)C(C)C)C(=O)N[C@@H](Cc1ccc(N)cc1)C(=O)O [WALL005] (H-AAVALLPAVLLALLAPKNNLKECGL[Phe(4-NH2)]-OH; N-terminus and C-terminus assumed)
solubility [1]: severe solubility problems
Secretagogue (histamine secretion following incubation of mast cell with different concentrations of each peptide) ([2]; Table 9, peptide alone): +
histamine secretion from mast cells on incubation with increasing concentrations of peptide alone [2]: resulted in histamine secretion

AAVALLPAVLLALLAPKNNLKECGLY [Peptide 2]
IC50, compound 48/80 induced histamine secretion [3]: 400 µg/mL
stimulatory effect of topical peptide by itself on the cutaneous allergic reactions ([4]; peptide and saline injection, without compound 48/80): no stimulatory effect
Net wheal area, effect of peptide (alone) ([4]; topical 1 mg/ml, Animal A, 1 hour after application): −8.8 mm2
Net wheal area, effect of peptide (alone) ([4]; topical 1 mg/ml, Animal B (footnote: 1 hour after application)): −5.5 mm2
Net wheal area, effect of peptide (alone) ([4]; topical 10 mg/ml, Animal A, 1 hour after application): −8.3 mm2
Net wheal area, effect of peptide (alone) ([4]; topical 10 mg/ml, Animal B (footnote: 1 hour after application)): −6.0 mm2
Wheal area, saline injection (control) ([4]; topical peptide 1 mg/ml, animal a, skin test 1 hour after application): 84.64^a mm^2
Wheal area, saline injection (control) ([4]; topical peptide 1 mg/ml, animal b, 2 hours after application): 66.91^b mm^2
Wheal area, saline injection (control) ([4]; topical peptide 10 mg/ml, animal a, 1 hour after application): 85.24^a mm^2
Wheal area, saline injection (control) ([4]; topical peptide 10 mg/ml, animal b, 2 hours after application): 66.40^b mm^2
Mean Wheal Area ± STD, Vehicle ([5]; Tables 17A-B, column head '0.1' (no unit), 0.5 hr prior to allergy induction): 57.0 ± 8.3 (n = 12) mm^2
Mean Wheal Area ± STD, Vehicle ([5]; Tables 17A-B, column head '0.1' (no unit), 1 hour prior): 56.2 ± 11.3 (n = 5) mm^2
Mean Wheal Area ± STD, Vehicle ([5]; Tables 17A-B, column head '1' (no unit), 0.5 hr prior): 61.7 ± 13.5 (n = 19) mm^2
Mean Wheal Area ± STD, Vehicle ([5]; Tables 17A-B, column head '1' (no unit), 1 hour prior): 50.6 ± 7.4 (n = 5) mm^2
Net wheal area, effect of peptide (alone) ([5]; intradermal 1 mg/ml, Animal A, 0.5 hour): 3.29 mm2
Net wheal area, effect of peptide (alone) ([5]; intradermal 1 mg/ml, Animal B, 1 hour): 7.0 mm2
Net wheal area, effect of peptide (alone) ([5]; intradermal 1 mg/ml, Animal C, 2 hours): 16.5 mm2
Net wheal area, effect of peptide (alone) ([5]; intradermal 10 mg/ml, Animal A, 0.5 hour): −1.68 mm2
Net wheal area, effect of peptide (alone) ([5]; intradermal 10 mg/ml, Animal B, 1 hour): −9.9 mm2
Net wheal area, effect of peptide (alone) ([5]; intradermal 10 mg/ml, Animal C, 2 hours): −3.0 mm2
Mean Wheal Area ± STD, Vehicle ([5]; intradermal peptide 1 mg/ml, 0.5 hour before, vehicle instead of compound 48/80): 60.7 ± 19.3 (n = 7) mm^2
Mean Wheal Area ± STD, Vehicle ([5]; intradermal peptide 1 mg/ml, 1 hour before, vehicle instead of compound 48/80): 52.3 ± 11.1 (n = 5) mm^2
Wheal area, saline injection (control) ([5]; intradermal peptide 1 mg/ml, animal a, 0.5 hour after injection): 65.78^a mm2
Wheal area, saline injection (control) ([5]; intradermal peptide 1 mg/ml, animal b, 1 hour): 119.2^b mm2
Wheal area, saline injection (control) ([5]; intradermal peptide 1 mg/ml, animal c, 2 hours): 77.31^c mm2
Mean Wheal Area ± STD, Vehicle ([5]; intradermal peptide 10 mg/ml, 0.5 hour before, vehicle instead of compound 48/80): 54.8 ± 11 (n = 5) mm^2
Mean Wheal Area ± STD, Vehicle ([5]; intradermal peptide 10 mg/ml, 1 hour before, vehicle instead of compound 48/80): 50.6 ± 7.411 (n = 5) mm^2
Wheal area, saline injection (control) ([5]; intradermal peptide 10 mg/ml, animal a, 0.5 hour): 60.81^a mm2
Wheal area, saline injection (control) ([5]; intradermal peptide 10 mg/ml, animal b, 1 hour): 102.3^b mm2
Wheal area, saline injection (control) ([5]; intradermal peptide 10 mg/ml, animal c, 2 hours): 57.81^c mm2
effect of intradermal injection of peptide alone on the cutaneous allergic reactions ([5]; without compound 48/80): hardly any stimulatory effect; also recorded: no cutaneous allergic reaction
Average Score, Erythema ([6]; no compound 48/80): 0.6
Average Score, Lid edema ([6]; no compound 48/80): 0
Average Score, Tearing ([6]; no compound 48/80): 0.2
Average Score, Total score ([6]; no compound 48/80): 0.8
Average Score, Chemosis ([6]; no compound 48/80 (Table 19 group 2)): 0
Secretagogue (histamine secretion following incubation of mast cell with different concentrations of each peptide) ([2]; Table 1, peptide alone): −

VTVLALGALAGVGVGKNNLKECGLY [Peptide 1]
solubility [1]: no solubility problems
Secretagogue (histamine secretion following incubation of mast cell with different concentrations of each peptide) ([2]; Table 9, peptide alone): +
histamine secretion from mast cells on incubation with increasing concentrations of peptide alone [2]: resulted in histamine secretion
stimulatory effect on histamine secretion ([2]; peptide alone, concentration range of up to 400 p.g/ml (FIG. 1A)): hardly any stimulatory effect
